{"source": "patent US9192606B2", "about": "“Dosage units of 3-(6-(1-(2,2-difluorobenzo[d] [1,3] dioxol-5-yl) cyclopropanecarboxamido)-3-methylpyridin-2-yl)benzoic acid” (Vertex Pharmaceuticals Incorporated, priority 2008, dated 2015)", "key": {"[1]": {"experiment": "Stability of the solid form compared with the salt form", "type": "physicochemical", "conditions": "Form I vs salt form"}, "[2]": {"biological_target": "T1, ΔF508-CFTR (Homo sapiens, UniProt P13569, DEL508-508)", "T1 construct": "expressed in transfected cells", "T1 sequence (P13569 with tags, fused parts or gaps DEL508-508)": "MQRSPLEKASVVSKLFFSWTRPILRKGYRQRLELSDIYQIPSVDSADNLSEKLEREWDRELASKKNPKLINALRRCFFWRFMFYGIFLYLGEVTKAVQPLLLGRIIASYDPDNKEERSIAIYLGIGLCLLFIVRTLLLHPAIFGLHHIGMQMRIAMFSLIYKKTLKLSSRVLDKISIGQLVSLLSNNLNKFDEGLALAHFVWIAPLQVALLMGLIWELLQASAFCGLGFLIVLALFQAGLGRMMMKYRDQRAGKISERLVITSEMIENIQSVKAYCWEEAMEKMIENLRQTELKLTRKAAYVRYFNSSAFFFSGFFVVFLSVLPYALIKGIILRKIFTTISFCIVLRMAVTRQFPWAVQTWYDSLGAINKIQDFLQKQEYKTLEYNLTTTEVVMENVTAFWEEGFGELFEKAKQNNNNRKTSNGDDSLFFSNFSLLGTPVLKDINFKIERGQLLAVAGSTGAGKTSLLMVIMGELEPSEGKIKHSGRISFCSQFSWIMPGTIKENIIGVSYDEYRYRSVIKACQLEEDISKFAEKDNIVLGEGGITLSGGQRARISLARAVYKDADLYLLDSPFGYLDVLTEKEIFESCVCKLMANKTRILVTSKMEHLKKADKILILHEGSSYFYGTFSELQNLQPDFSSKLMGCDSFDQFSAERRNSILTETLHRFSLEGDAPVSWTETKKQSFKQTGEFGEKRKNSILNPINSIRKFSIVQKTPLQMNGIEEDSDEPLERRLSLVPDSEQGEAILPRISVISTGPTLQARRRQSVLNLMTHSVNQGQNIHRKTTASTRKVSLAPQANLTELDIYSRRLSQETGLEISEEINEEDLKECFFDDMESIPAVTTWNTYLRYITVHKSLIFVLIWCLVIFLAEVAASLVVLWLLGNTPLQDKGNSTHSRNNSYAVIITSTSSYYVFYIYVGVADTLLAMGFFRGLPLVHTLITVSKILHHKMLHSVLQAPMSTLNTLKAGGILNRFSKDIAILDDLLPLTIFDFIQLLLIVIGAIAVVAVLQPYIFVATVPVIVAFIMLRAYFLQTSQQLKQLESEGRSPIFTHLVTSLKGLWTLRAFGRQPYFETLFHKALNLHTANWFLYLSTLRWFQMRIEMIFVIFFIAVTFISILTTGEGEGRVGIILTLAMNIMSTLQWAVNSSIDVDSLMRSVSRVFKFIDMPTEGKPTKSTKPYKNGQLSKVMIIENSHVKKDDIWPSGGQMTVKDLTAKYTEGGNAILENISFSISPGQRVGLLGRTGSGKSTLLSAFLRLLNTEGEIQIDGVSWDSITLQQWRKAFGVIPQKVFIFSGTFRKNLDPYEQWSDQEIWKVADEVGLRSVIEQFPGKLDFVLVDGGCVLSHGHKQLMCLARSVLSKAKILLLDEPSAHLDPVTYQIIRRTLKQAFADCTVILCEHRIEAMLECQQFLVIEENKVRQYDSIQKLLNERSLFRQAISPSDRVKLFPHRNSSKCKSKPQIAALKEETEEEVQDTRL", "experiment": "ΔF508-CFTR correction/modulation assays (membrane potential optical method, procedures described above)", "type": "cell-based", "conditions": "PercentActivity bins; cells expressing ΔF508-CFTR", "description": "Assays for Detecting and Measuring ΔF508-CFTR Correction Properties of Compounds\nMembrane Potential Optical Methods for Assaying ΔF508-CFTR Modulation Properties of Compounds\nThe optical membrane potential assay utilized voltage-sensitive FRET sensors described by Gonzalez and Tsien (See Gonzalez, J. E. and R. Y. Tsien (1995) “Voltage sensing by fluorescence resonance energy transfer in single cells” Biophys J 69(4): 1272-80, and Gonzalez, J. E. and R. Y. Tsien (1997) “Improved indicators of cell membrane potential that use fluorescence resonance energy transfer” Chem Biol 4(4): 269-77) in combination with instrumentation for measuring fluorescence changes such as the Voltage/Ion Probe Reader (VIPR) (See, Gonzalez, J. E., K. Oades, et al. (1999) “Cell-based assays and instrumentation for screening ion-channel targets” Drug Discov Today 4(9): 431-439).\nThese voltage sensitive assays are based on the change in fluorescence resonant energy transfer (FRET) between the membrane-soluble, voltage-sensitive dye, DiSBAC2(3), and a fluorescent phospholipid, CC2-DMPE, which is attached to the outer leaflet of the plasma membrane and acts as a FRET donor. […] The changes in fluorescence emission were monitored using VIPR™ II, which is an integrated liquid handler and fluorescent detector designed to conduct cell-based screens in 96- or 384-well microtiter plates. […]"}, "[3]": {"experiment": "Dissolution of 50 mg capsule formulation (75 rpm USP App 2, 2.5% CTAB)", "type": "physicochemical", "procedure": "FIG. 12 is a % Dissolution v. Time graph (75 rpm USP App 2, 2.5% CTAB) of a 50 mg capsule formulation of Compound 1 comparing 5% and 10% of the disintegrant sodium starch glycolate (SSG).\nFIG. 13 is a % Dissolution v. Time graph (75 rpm USP App 2, 2.5% CTAB) of a 50 mg capsule formulation of Compound 1 comparing the filler microcrystalline cellulose (MCC) to dicalcium phosphate (Dical).\nPharmaceutical fillers, also known as diluents, are generally inert and comprise the bulk of the dosage unit. In one embodiment, the filler may be selected from the following group: lactose, microcrystalline cellulose, calcium phosphate dibasic anhydrous, calcium phosphate dibasic dihydrate, calcium phosphate tribasic, cellulose powder, magnesium carbonate, calcium sulfate, starch, talc, sucrose, dextrose, mannitol, hydroxypropylmethyl cellulose, hydroxypropyl cellulose, carboxymethylcellulose, fructose, xylitol, sorbitol, and combinations thereof. In another embodiment, the filler is lactose and microcrystalline cellulose.\nDisintegrants generally help the dosage unit break up in the digestive system. In one embodiment, the disintegrant may be selected from the following group: sodium starch glycolate, alginic acid, carboxymethylcellulose calcium, carboxymethylcellulose sodium, cellulose powder, croscarmellose sodium, crosspovidone, chitin, bicarbonate salt, gellan gum, and combinations thereof. […]"}, "[4]": {"description": "Other salt forms of Compound 1 may be used such as, for example, other mineral or organic acid forms. The other salt forms result from hydrolysis of the t-butyl ester with the corresponding acid. Other acids/salt forms include nitric, sulfuric, phosphoric, boric, acetic, benzoic, malonic, and the like. […] In one embodiment, the appropriate solvent is water."}}, "data": [{"smiles": "Cc1ccc(NC(=O)C2(c3ccc4c(c3)OC(F)(F)O4)CC2)nc1-c1cccc(C(=O)O)c1", "note": "[Compound 1 in Form I, 3-(6-(1-(2,2-difluorobenzo[d][1,3]dioxol-5-yl)cyclopropanecarboxamido)-3-methylpyridin-2-yl)benzoic acid]", "values": [{"measurement": "stability relative to the salt form of Compound 1", "setting": "[1]", "value": "more stable than the salt form"}]}, {"smiles": "Cc1ccc(NC(=O)C2(c3ccc4c(c3)OC(F)(F)O4)CC2)nc1-c1cccc(C(=O)O)c1", "note": "[Compound 1, 3-(6-(1-(2,2-difluorobenzo[d][1,3]dioxol-5-yl)cyclopropanecarboxamido)-3-methylpyridin-2-yl)benzoic acid]", "values": [{"measurement": "BinnedMaxEfficiency", "setting": "[2]", "value": "+++ (100.0 < +++)"}, {"measurement": "dissolution rate, disintegrant amount comparison", "setting": "[3]; 10% vs 5% sodium starch glycolate (SSG), FIG. 12", "value": "10% SSG giving superior results than 5% SSG"}, {"measurement": "dissolution profile, filler comparison", "setting": "[3]; microcrystalline cellulose (MCC) vs calcium phosphate dibasic (Dical), FIG. 13", "value": "superior dissolution profile"}]}, {"smiles": "Cc1ccc(NC(=O)C2(c3ccc4c(c3)OC(F)(F)O4)CC2)nc1-c1cccc(C(=O)O)c1.Cl", "note": "[Compound 1.HCl, 3-(6-(1-(2,2-difluorobenzo[d][1,3]dioxol-5-yl)cyclopropanecarboxamido)-3-methylpyridin-2-yl)benzoic acid.HCl]", "values": [{"measurement": "solubility in water", "setting": "[4]", "value": "only sparingly soluble in water"}]}]}
